These results are taken from PMC6151589, “Identification of Optically Active Pyrimidine Derivatives as Selective 5-HT2C Modulators” (Molecules : A Journal of Synthetic Chemistry and Natural …, 2017).

Common to all, as to type: binding
The target of one assay is T1, 5-HT2B (Homo sapiens, UniProt P41595).
T1 construct: gene HTR2B; human recombinant receptor; crude membrane fractions of transfected HEK293 or CHO cells
Description: radioligand displacement, membranes. An excerpt:
radioligand displacement, membranes on 5-HT2B

The target in a further assay is T2, 5-HT2A (Homo sapiens, UniProt P28223).
T2 construct: gene HTR2A; human recombinant receptor; crude membrane fractions of transfected HEK293 or CHO cells
Description: radioligand displacement, membranes. An excerpt: radioligand displacement, membranes on 5-HT2A

In assay [1] the target is T3, 5-HT2C (Homo sapiens, UniProt P28335).
T3 construct: gene HTR2C; human recombinant receptor; crude membrane fractions of transfected cells (CHO-K1; HEK293 or CHO)
T3 sequence (P28335 33-458): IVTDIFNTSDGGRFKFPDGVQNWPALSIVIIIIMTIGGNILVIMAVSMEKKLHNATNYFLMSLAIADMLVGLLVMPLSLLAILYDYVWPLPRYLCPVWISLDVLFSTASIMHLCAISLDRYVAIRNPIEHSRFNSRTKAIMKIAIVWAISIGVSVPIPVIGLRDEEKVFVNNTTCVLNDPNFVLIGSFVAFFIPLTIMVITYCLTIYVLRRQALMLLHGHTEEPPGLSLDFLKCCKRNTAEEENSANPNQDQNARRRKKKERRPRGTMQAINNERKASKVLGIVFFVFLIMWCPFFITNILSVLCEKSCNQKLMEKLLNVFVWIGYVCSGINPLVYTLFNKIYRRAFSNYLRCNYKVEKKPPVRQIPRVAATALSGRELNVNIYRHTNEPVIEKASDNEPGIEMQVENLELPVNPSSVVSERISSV
Description: [3H]mesulergine displacement, membranes. An excerpt: [3H]mesulergine displacement, membranes on 5-HT2C

For assay [2], the target named is T3, 5-HT2C. Description: [3H]mesulergine displacement, membranes. The following applies: read-out: 5-HT2B / Ki.

Where two headings read alike, the source gives them in different places.

T1 sequence (P41595 whole entry): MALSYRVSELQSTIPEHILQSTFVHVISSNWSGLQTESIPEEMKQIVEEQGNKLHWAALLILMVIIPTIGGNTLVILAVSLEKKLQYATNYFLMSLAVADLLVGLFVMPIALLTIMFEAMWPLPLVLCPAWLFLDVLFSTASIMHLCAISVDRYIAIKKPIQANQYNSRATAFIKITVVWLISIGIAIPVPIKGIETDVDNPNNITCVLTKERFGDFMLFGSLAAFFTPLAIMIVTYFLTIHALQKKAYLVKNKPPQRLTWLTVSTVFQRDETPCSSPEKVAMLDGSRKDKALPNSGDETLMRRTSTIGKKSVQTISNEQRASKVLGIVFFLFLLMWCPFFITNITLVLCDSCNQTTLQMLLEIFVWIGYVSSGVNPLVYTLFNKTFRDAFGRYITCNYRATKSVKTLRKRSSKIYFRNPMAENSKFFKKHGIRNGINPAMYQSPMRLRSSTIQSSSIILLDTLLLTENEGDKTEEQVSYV
T2 sequence (P28223 whole entry): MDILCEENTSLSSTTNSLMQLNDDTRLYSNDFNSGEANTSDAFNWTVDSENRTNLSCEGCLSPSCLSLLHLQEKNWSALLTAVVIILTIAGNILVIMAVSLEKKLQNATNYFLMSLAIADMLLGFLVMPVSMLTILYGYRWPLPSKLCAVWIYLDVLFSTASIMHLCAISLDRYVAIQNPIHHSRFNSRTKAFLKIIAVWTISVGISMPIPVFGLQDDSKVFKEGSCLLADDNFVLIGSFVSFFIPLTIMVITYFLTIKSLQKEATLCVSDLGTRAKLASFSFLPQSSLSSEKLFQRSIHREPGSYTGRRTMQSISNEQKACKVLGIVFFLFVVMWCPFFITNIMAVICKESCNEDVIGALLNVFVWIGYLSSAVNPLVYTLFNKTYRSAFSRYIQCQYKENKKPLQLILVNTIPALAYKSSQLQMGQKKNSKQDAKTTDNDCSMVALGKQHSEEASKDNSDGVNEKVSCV

Take `C[C@@H]1CNCCN1c1ncc(F)c(OCc2ccc(F)cc2)n1` [4c, (R)-5-Fluoro-4-((4-fluorobenzyl)oxy)-2-(2-methylpiperazin-1-yl)pyrimidine]: the results for the Ki at 5-HT2B, on 5-HT2A and at 5-HT2C [1] were 0.014 µM, 0.051 µM and 0.022 µM, respectively.

As to `CC(Oc1nc(N2CCNC[C@H]2C)ncc1F)c1ccc(F)cc1` (mixture of isomers) [4e, 5-Fluoro-4-(1-(4-fluorophenyl)ethoxy)-2-((R)-2-methylpiperazin-1-yl)pyrimidine], the figures for the Ki at 5-HT2B, at 5-HT2A and at 5-HT2C [1] were 0.01 µM, 0.426 µM and 0.0045 µM, respectively.

As to `C[C@@H]1CNCCN1c1ncc(F)c(OCc2cccc(F)c2)n1` [4b, (R)-5-Fluoro-4-((3-fluorobenzyl)oxy)-2-(2-methylpiperazin-1-yl)pyrimidine], the Ki at 5-HT2B came out at 0.014 µM; on 5-HT2A, 0.043 µM; on 5-HT2C [1], 0.0051 µM.

`CC(CCc1cccc(F)c1)Oc1nc(N2CCNC[C@H]2C)ncc1F` (mixture of isomers) [4h, 5-Fluoro-4-((4-(3-fluorophenyl)butan-2-yl)oxy)-2-((R)-2-methylpiperazin-1-l)pyrimidine]: the Ki at 5-HT2B is 0.016 µM; on 5-HT2A it was 0.17 µM; at 5-HT2C [1], 0.014 µM.

Take `C[C@@H]1CNCCN1c1ncc(F)c(OCc2ccccc2F)n1` [4a, (R)-5-Fluoro-4-((2-fluorobenzyl)oxy)-2-(2-methylpiperazin-1-yl)pyrimidine]: the Ki was determined as 0.056 µM on 5-HT2B, 0.08 µM on 5-HT2A and 0.031 µM on 5-HT2C [1].

Consider `C[C@@H]1CNCCN1c1ncc(F)c(OCCCc2cccc(F)c2)n1` [4f, (R)-5-Fluoro-4-(3-(3-fluorophenyl)propoxy)-2-(2-methylpiperazin-1-yl)pyrimidine], for which the Ki on 5-HT2B was found to be 0.024 µM; on 5-HT2A, 0.138 µM; on 5-HT2C [1] it was 0.02 µM.

As to `CC(CCc1ccc(F)cc1)Oc1nc(N2CCNC[C@H]2C)ncc1F` (mixture of isomers) [4i, 5-Fluoro-4-((4-(4-fluorophenyl)butan-2-yl)oxy)-2-((R)-2-methylpiperazin-1-yl)pyrimidine], the Ki on 5-HT2B was determined as 0.022 µM; at 5-HT2A, 0.173 µM; at 5-HT2C [1] it was 0.012 µM.

As to `CC(Oc1nc(N2CCNC[C@H]2C)ncc1F)c1cccc(F)c1` (mixture of isomers) [4d, 5-Fluoro-4-(1-(3-fluorophenyl)ethoxy)-2-((R)-2-methylpiperazin-1-yl)pyrimidine], the Ki on 5-HT2B worked out at 0.0048 µM; on 5-HT2A, 0.213 µM; on 5-HT2C [1] it was 0.0027 µM.

`C[C@@H]1CNCCN1c1ncc(F)c(OCCCc2ccc(F)cc2)n1` [4g, (R)-5-Fluoro-4-(3-(4-fluorophenyl)propoxy)-2-(2-methylpiperazin-1-yl)pyrimidine]: the Ki is 0.022 µM at 5-HT2C [2], 0.022 µM at 5-HT2B and 0.09 µM on 5-HT2A.
